Experimental data published in patent US7553837B2, “Phenylazole compounds production process and antioxidants” (Nippon Soda Co., Ltd., priority 2003, dated 2009).

Experiments:
[1] = system: lipid peroxidation activity in a rat brain homogenate; assay: In vitro lipid peroxidation inhibition (rat brain homogenate, thiobarbituric acid process); format: biochemical; conditions: read-out: In vitro lipid peroxidation inhibition 50% inhibitory concentration (IC50 μM), 500 μM cysteine, 5 μM sulfuric acid monobasic iron, 100 mM KCl, 37° C. for 30 minutes
Procedure: An in vitro lipid peroxidation inhibition of the compounds of the present invention was evaluated by measuring a lipid peroxidation activity in a rat brain homogenate according to a process of Malvy, c., et al., Biochemical and Biophysical Research Communications, 1980, Vol. 95, p. 734-737. That is, a rat brain was extracted and a 5-fold amount of an aqueous phosphoric acid buffered saline solution (pH 7.4) (hereinafter abbreviated to PBS) was added to the brain under ice cooling, followed by homogenization using a Teflon homogenizer and further centrifugation at 10,000 g for 20 minutes to prepare a brain homogenate as a supernatant. To the brain homogenate thus prepared, 500 μM cysteine, 5 μM sulfuric acid monobasic iron and 100 mM KCl were added, followed by incubation at 37° C. for 30 minutes. Malondialdehyde produced by the […] of lipid peroxidation was measured by a thiobarbituric acid process.

[2] = system: lipid peroxidation in retina homogenate; assay: Retina migration properties: ex vivo retinal lipid peroxidation production inhibition; format: in vivo; conditions: SD male rats, retina taken after 30 minutes
Procedure: Retina migration properties of the compounds of the present invention were evaluated. To SD male rats (one group: 3 rats, 6 weeks old), a solution or suspension prepared by dissolving or suspending each of the test compounds in a 0.1N hydrochloric acid solution or a 1% poly oxy ethylene hydrogenated castor oil (NIKKOL HCO-60) solution was orally administered. After 30 minutes, both eyes were extracted and the retina was separated under ice cooling. A 5% homogenate solution of the retina was prepared in a 0.1M tris-hydrochloric acid buffer (pH 7.4) under ice cooling using a polytron homogenizer for a trace amount (NS-310E: manufactured by Nichion Irika Kiki Co., Ltd.) and, after autoxidation at 37° C. for one hour, the amount of lipid peroxidation produced was determined by a thiobarbituric acid process (MASUGI et al., vitamin 51, 21-29, 1977). A 30% inhibitory dose (ID30) was determined from the inhibition ratio at each dose. As is apparent from the results, the compounds of the present invention have an ex vivo retinal lipid peroxidation production inhibitory action and is also excellent in retina migration properties.

[3] = biological target: T1, 5-lipoxygenase (5-LO) (Homo sapiens, UniProt P09917); assay: 5-lipoxygenase (5-LO) inhibitory activity, leukotriene B4 production in human peripheral blood mononuclear cells; format: cell-based; conditions: human peripheral blood mononuclear cells, A23187, leukotriene B4 production
T1 construct: human peripheral blood mononuclear cells and each of test compounds dissolved in DMSO (final concentration: 1%) were preincubated; endogenous in cells; host or cells: human peripheral blood mononuclear cells
T1 sequence (P09917 1-674): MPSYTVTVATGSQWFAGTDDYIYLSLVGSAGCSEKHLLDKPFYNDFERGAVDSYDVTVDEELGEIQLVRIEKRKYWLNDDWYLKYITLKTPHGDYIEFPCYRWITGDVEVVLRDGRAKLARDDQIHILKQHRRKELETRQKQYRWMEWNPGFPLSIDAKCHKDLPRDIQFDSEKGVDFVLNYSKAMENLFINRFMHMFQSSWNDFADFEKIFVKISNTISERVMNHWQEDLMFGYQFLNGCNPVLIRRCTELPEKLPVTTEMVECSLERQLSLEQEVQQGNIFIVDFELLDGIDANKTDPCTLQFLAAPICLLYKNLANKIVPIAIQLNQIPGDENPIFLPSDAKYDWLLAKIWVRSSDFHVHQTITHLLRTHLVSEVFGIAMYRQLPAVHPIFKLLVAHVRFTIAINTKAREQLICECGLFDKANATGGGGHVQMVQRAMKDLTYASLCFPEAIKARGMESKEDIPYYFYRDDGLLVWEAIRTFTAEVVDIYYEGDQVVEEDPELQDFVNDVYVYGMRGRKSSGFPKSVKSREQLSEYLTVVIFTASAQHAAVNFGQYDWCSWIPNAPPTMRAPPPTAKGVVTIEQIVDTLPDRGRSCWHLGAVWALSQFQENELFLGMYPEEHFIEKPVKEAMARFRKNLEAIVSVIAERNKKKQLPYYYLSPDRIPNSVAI
Procedure: A 5-LO inhibitory activity was measured by a partially modified process of a process of Carter et al. (Carter G. W, et al, J. Pharmacol. Exp. Ther.: 256, 929-37, 1991). That is, human peripheral blood mononuclear cells and each of test compounds dissolved in DMSO (final concentration: 1%) were preincubated (37° C., 15 minutes) in a Hanks' balanced salt solution and 30 μM A23187 was further added, followed by incubation (37° C., 30 minutes). The amount of leukotriene B4 produced as a result of incubation was determined by enzyme immunoassay and a 50% production inhibitory concentration (μM) against 5-LO of each test compound was calculated.

[4] = Acute oral toxicity, single oral dose, mortality rate after 7 days; conditions: mouse, in vivo, male mice, observed for 7 days
Procedure: A single dose of each of the compounds of the present invention was orally administered to male mice. After observing for 7 days, a mortality rate was determined.

[5] = system: abnormal behavior and fatality due to ferrous chloride; assay: In vivo antioxidative activity: ferrous chloride administration into spinal subarachnoid cavity of mice; set-up: species or system Slc:ICR male mice; conditions: score after 60 minutes
Procedure: An in vivo antioxidative activity of the compounds of the present invention was evaluated from an abnormal behavior due to administration of ferrous chloride into spinal subarachnoid cavity of mice as well as an inhibitory effect of a fatality rate according to the process described in J. Med. Chem., 1997, Vol. 40, p. 559-573. Using Slc:ICR male mice (one group: 3 to 7 mice, 5 weeks old) (available from Nippon SLC Co., Ltd.), 5 μl of a 50 mM ferrous chloride physiological saline solution was administered to the spinal canal through the space between the fifth lumbar vertebrae and the sixth lumbar vertebrae. 20 to 60 minutes after administration of ferrous chloride, symptoms were observed and a score after 60 minutes was determined from symptoms shown in Table 32. […] As is apparent from the results, the compounds of the present invention have an in vivo antioxidation action.

Q: With `Cc1c(C)c2c(c(C)c1N)CC(C)(CN1CCN(c3cccc(-n4ccnc4)c3)CC1)O2` (stereo not drawn) [Compound B-1-18] as the compound, how does the IC50 [1] read?
A: 0.25 µM

Q: And the “Lipid peroxidation inhibition 30% inhibitory concentration (ID30, oral administration) in ex vivo retina” value [2]?
A: 12 mg/kg

Q: What about the IC50 [3] of the same compound?
A: 2.55 µM

Q: What about the LD50 at 7 days [4] of the same compound?
A: > 1000 mg/kg

Q: What about the “In vivo antioxidation action 50% inhibitory concentration (ID50), Intraperitoneal administration” value ([5]; intraperitoneal administration 30 minutes before ferrous chloride into spinal canal) of the same compound?
A: 4.7 mg/kg

Q: What about the “In vivo antioxidation action 50% inhibitory concentration (ID50), Oral administration” value ([5]; oral administration 30 minutes before ferrous chloride into spinal canal) of the same compound?
A: 7.4 mg/kg
